Measured values reported in US6627227B2, “Use of saw palmetto to prevent atherosclerosis” (priority 2000, dated 2003).

Key:
[1] = Retrospective chart review of cardiac events in prostate cancer patients on LHRH inhibitors vs controls; format: in vivo; conditions: treated patients vs controls
Procedure: The patients on either Leuprolide or Goserelin were treated with the recommended doses indicated for the treatment of prostatic carcinoma, at either one or three month intervals depending on the preparation used. Leuprolide was dosed at 7.5 mg monthly (single intramuscular injection) or at 22.5 mg at 3 month intervals (single intramuscular injection). Goserelin was dosed at 3.6 mg monthly or at a dose of 10.8 mg at 3 month intervals (subcutaneous injection). The various groups of office patients were evaluated by chart review. In groups 2 and 3 only those on drug for at least one year were considered. Cardiac event is defined either the history of a heart attack or occurrence of coronary artery bypass or angioplasty. In control groups only events occurring in the 3 years prior to the questionnaire are charted.

[2] = Second study: patient questionnaire, cardiac events in patients taking finasteride; format: in vivo; conditions: 4 events over 242 patient-years; control 3.5%/yr.
Procedure: Finasteride was being administered at a dosage of a single oral 5 mg tablet a day. This is the same tablet used in treatment of BPH as disclosed in U.S. Pat. No. 5,175,155 and such dosage applies in the present invention. However, use of a 2 mg or 10 mg oral tablet is contemplated. In the second study patients of the practice were given a questionnaire. Various patients had been treated with finasteride for varying lengths of time. Only those on the drug for at least one year were considered. The average time on finasteride was 3 years. The number of cardiac events occurring in the patients taking finasteride was only 4 events over 242 patient-years. (1.6%/yr.) In the control group 26 events occurred in the 3 years prior over 732 patient-years. (3.5%/yr.) The 45% decrease observed in cardiac events is believed to be significant. (90% Cl equal to 1.4% to 3.7%)

| SMILES | heart attacks compared with controls [1] | cardiac event rate [2] |
| --- | --- | --- |
| CC(=O)O.CCNC(=O)[C@@H]1CCCN1C(=O)[C@H](CCCNC(=N)N)NC(=O)[C@H](CC(C)C)NC(=O)[C@@H](CC(C)C)NC(=O)[C@H](Cc1ccc(O)cc1)NC(=O)[C@H](CO)NC(=O)[C@H](Cc1c[nH]c2ccccc12)NC(=O)[C@H](Cc1c[nH]cn1)NC(=O)[C@@H]1CCC(=O)N1 [Lupron, 5-oxo-L-prolyl-L-histidyl-L-tryptophyl-L-seryl-L-tyrosyl-D-leucyl-L-leucyl-L-arginyl-N-ethyl-L-prolinamide acetate salt] | fewer heart attacks than controls |  |
| CC(C)C[C@H](NC(=O)[C@@H](COC(C)(C)C)NC(=O)[C@H](Cc1ccc(O)cc1)NC(=O)[C@H](CO)NC(=O)[C@H](Cc1c[nH]c2ccccc12)NC(=O)[C@H](Cc1cnc[nH]1)NC(=O)[C@@H]1CCC(=O)N1)C(=O)N[C@@H](CCCNC(=N)N)C(=O)N1CCC[C@H]1C(=O)NNC(N)=O [Zoladex, pyro-Glu-His-Trp-Ser-Tyr-D-Ser(Bu^t)-Leu-Arg-Pro-Azgly-NH2 acetate] | fewer heart attacks than controls |  |
| CC(C)(C)NC(=O)[C@H]1CC[C@H]2[C@@H]3CC[C@H]4NC(=O)C=C[C@]4(C)[C@H]3CC[C@]12C [finasteride, 4-azaandrost-1-ene-17-carboxamide, N-(1,1-dimethylethyl)-3-oxo-(5a 17B)-] |  | 1.6 %/yr. |
